Measurements from ChEMBL document CHEMBL1139950, “Derivatives of oxoisoaporphine alkaloids: a novel class of selective acetylcholinesterase inhibitors” (Bioorg Med Chem Lett, 2007).

What was measured:
Butyrylcholinesterase = Butyrylcholinesterase (Equus caballus, UniProt Q9N1N9); assay: Inhibition of equine serum BuChE
Acetylcholinesterase = Acetylcholinesterase (Electrophorus electricus, UniProt O42275); assay: Inhibition of electric eel AChE
[1] = Selectivity for electric eel AChE over equine serum BuChE

Chain of Butyrylcholinesterase (Q9N1N9 whole entry): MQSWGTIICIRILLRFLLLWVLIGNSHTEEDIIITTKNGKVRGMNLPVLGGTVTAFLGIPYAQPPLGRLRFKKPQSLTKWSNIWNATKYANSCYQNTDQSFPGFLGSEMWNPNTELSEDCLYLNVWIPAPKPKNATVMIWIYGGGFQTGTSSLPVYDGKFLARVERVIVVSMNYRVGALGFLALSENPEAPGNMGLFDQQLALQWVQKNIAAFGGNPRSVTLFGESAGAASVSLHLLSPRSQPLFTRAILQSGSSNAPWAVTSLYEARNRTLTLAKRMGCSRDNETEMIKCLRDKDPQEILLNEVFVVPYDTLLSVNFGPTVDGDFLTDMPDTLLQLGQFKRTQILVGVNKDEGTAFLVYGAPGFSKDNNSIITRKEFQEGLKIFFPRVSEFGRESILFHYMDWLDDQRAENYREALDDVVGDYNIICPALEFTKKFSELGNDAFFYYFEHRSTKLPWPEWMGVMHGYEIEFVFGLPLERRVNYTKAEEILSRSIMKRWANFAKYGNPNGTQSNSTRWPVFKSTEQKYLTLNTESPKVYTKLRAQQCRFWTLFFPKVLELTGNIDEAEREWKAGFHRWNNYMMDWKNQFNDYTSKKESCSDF
Chain of Acetylcholinesterase (O42275 whole entry): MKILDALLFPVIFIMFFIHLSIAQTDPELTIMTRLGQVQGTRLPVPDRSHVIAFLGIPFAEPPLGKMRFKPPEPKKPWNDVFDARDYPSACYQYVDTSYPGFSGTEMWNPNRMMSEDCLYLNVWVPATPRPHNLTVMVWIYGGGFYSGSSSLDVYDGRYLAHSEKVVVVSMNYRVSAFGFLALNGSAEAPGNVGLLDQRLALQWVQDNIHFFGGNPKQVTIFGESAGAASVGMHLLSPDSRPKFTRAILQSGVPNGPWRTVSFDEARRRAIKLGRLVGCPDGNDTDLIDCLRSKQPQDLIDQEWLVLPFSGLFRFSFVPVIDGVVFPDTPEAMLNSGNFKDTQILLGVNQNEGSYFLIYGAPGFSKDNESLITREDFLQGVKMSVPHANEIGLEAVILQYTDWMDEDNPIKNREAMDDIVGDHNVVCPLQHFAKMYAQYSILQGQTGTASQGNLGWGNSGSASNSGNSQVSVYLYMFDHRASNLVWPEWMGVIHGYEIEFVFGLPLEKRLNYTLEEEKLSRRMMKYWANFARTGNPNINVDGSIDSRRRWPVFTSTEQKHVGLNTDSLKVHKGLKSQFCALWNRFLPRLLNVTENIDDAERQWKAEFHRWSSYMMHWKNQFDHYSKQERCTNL

| SMILES | IC50 (Butyrylcholinesterase) [µM] | IC50 (Acetylcholinesterase) [µM] | Ratio IC50 [1] |
| --- | --- | --- | --- |
| C[N+](C)(C)CCCC(=O)Nc1ccc2c(c1)C(=O)c1cccc3ccnc-2c13 | 2.37 | 0.00479 | 490 |
| C[N+]1(CCC(=O)Nc2ccc3c(c2)C(=O)c2cccc4ccnc-3c24)CCCC1 | 1.96 | 0.00106 | 1850 |
| O=C(CN1CCCC1)Nc1ccc2c(c1)C(=O)c1cccc3ccnc-2c13 | 3.49 | 0.00618 | 560 |
| C[N+]1(CCCC(=O)Nc2ccc3c(c2)C(=O)c2cccc4ccnc-3c24)CCCC1 | 3.23 | 0.00251 | 1290 |
| O=C(CCNCCO)Nc1ccc2c(c1)C(=O)c1cccc3ccnc-2c13 | 5.34 | 0.0551 | 97 |
| CN(C)CCCC(=O)Nc1ccc2c(c1)C(=O)c1cccc3ccnc-2c13 | 4.4 | 0.0305 | 144 |
| CC[N+](C)(CC)CCCC(=O)Nc1ccc2c(c1)C(=O)c1cccc3ccnc-2c13 | 5.19 | 0.00262 | 1980 |
| C[N+]1(CC(=O)Nc2ccc3c(c2)C(=O)c2cccc4ccnc-3c24)CCCC1 | 1.69 | 0.00108 | 1560 |
| CN(C)CCNCCC(=O)Nc1ccc2c(c1)C(=O)c1cccc3ccnc-2c13 | 5.37 | 0.12 | 45 |
| CCN(CC)CCC(=O)Nc1ccc2c(c1)C(=O)c1cccc3ccnc-2c13 | 6.06 | 0.0116 | 523 |
| Nc1ccc2c(c1)C(=O)c1cccc3ccnc-2c13 | 100 | 26.9 | – |
| O=C(CCN1CCCC1)Nc1ccc2c(c1)C(=O)c1cccc3ccnc-2c13 | 2.41 | 0.00247 | 980 |
| CN(C)CCC(=O)Nc1ccc2c(c1)C(=O)c1cccc3ccnc-2c13 | 1.95 | 0.0339 | 58 |
| C[N+](C)(C)CC(=O)Nc1ccc2c(c1)C(=O)c1cccc3ccnc-2c13 | 1.31 | 0.0149 | 88 |
| O=C(CCCN1CCCC1)Nc1ccc2c(c1)C(=O)c1cccc3ccnc-2c13 | 3.61 | 0.0121 | 300 |
| C[N+](C)(C)CCC(=O)Nc1ccc2c(c1)C(=O)c1cccc3ccnc-2c13 | 2.82 | 0.00481 | 590 |
| CN(C)CC(=O)Nc1ccc2c(c1)C(=O)c1cccc3ccnc-2c13 | 4.37 | 0.0965 | 45 |
